Source: US20260209256A1, “PHOSPHINE OXIDE-BASED PHOTOINITIATORS” (Arkema France, priority 2022, published 2026)

Legend:
[1] = Curing experiments: belt cure under LED lamp at 395 nm; settings: LED 395 nm, 50 μm film
Procedure: Testing Protocol: Formulations were prepared by combining all materials in the given proportions and then stirring at 30-40° C. until the samples were fully homogeneous; the formulations were then allowed to cool to 20° C. All components remained fully dissolved in the resin formulations throughout these experiments. For all experiments, the formulations were cured on Leneta Form 3N-31 gloss finish paper at 50 μm film thickness using a belt-cure instrument; the films were prepared using a K-bar. All films were then cured under an LED lamp at 395 nm at a belt speed of 10 m/min. The cure speed for each formulation was calculated from the number of passes under each lamp required to give complete surface cure (determined when light scratching of the surface of the film no longer left a mark) and depth cure (determined using the ‘thumb-twist’ test, where no visible mark is made when a thumb is pressed down firmly onto the coating with a twisting motion), and from the belt speed; the calculated cure speed (in m/min) is given in Tables 1A-1B as an average of 3 runs. Where cure speed was less than 0.3 m/min, the result was recorded as ‘No cure’.

[2] = LED-DSC test of 3D printing curable compositions
Procedure: A photo differential scanning calorimetry (DSC) with a customized 405 nm LED lamp setup was used. All photopolymerization rate measurement were performed using a Q2000 DSC unit from TA Instruments. A lamp holder for the DSC unit can be customized and printed from Arkema N3xtDimention® engineered resin N3D-TOUGH784 in order to ensure precisely fit of a 405 nm lamp AccuCure ULM-2-405 from Digital Light Labs. The LED light was automatically triggered by connecting the “Event” outlet of the DSC unit to an Accure Photo Rheometer Ultraviolet Illumination & Measurement System. LED light exposure can be programed by using “Event” on or off from Photo DSC software, but the intensity of light can be preset from the Accure Photo Rheometer Ultraviolet Illumination & Measurement System. For measurement, approximate 10 mg liquid sample was placed at the center of a T130522 DSC Tzero pan, cured by exposing it to 50 mW/cm^2 of 405 nm LED light for 0.3 minutes under a 50 mL/min N2 flow rate and 40° C. The resulting heat flow (W/g) curve was collected to analyze maximum heat flow peak value and maximum peak time, and listed in Table 3A.

[3] = UV PhotoDSC of nail gel top coat compositions
Procedure: Photo Differential Scanning Calorimetry (PhotoDSC) was used to measure the cure speed, heat generation during cure and heat flow measurements for the UV curable top coat compositions containing TPO, TPO-L and Photoinitiator 9 as shown in Table 2C below. PhotoDSC was measured using a TA instruments Q2000 DSC equipped with an EFOS A4000 Acticure UVNisible light curing system containing a 100 W Mercury lamp light source. The UV-light intensity was measured out of the sample window using an EIT UV power puck II radiometer prior to the experiment. Sample preparation for PhotoDSC occurred as follows: A Tzero aluminum reference pan and a Tzero aluminum sample pan were weighed. One drop of formulation (about 5-15 milligrams) was placed at the center of the sample pan and the mass was recorded. The two pans were placed in the DSC apparatus. The system was stabilized at 25° C. for 30 seconds under a continuous stream of nitrogen. An isothermal experiment was initiated and sample and reference pan were flooded with UVNisible light (320 to 450 nm, 190-210 mJ/cm^2) for two minutes. An exothermic peak, due to crosslinking, is recorded during the experiment. The cure speed is measured by determining the time it takes to reach the peak max while the lamp is turned on. The area under the peak is recorded as the heat flow value (J/g). The max temperature during cure is recorded as the temperature shown at the maximum peak during cure.

[4] = Stability by LED-FTIR analysis at 405 nm (accelerated ageing); assay type: physicochemical; settings: photoinitiator or formulation aged at 60° C. for 1 week, 10 mW, dry air, FIG. 6A/6B
Procedure: The cure speed of aged samples comprising Photoinitiator 11 vs Speedcure TPO was acquired in experimental formulations using LED-FTIR analysis. The photoinitiator was aged at 60° C. for 1 week, then made into formulation and directly compared to ageing the photoinitiator in formulation at 60° C. for 1 week.
LED FT-IR Analysis was conducted on a ThermoScientific Nicolet iS50 Ft-IR Spectrometer with a standard DLaTGS detector 2. A film applicator was used to spread the applied sample into a film of 3 mils thickness. For analysis all the spectra are normalized by using the 1727 cm^−1 (—C═O stretch) peak as reference. For acrylic monomers, the decrease in peak height of C═C peak at 1407 cm^−1 was used for measuring conversion versus time The degree of conversion of the monomers was calculated by measuring the peak height. The stability results for the formulations comprising Speedcure TPO are shown in FIG. 6A and stability the results for the formulations comprising Photoinitiator 11 are shown in FIG. 6B.

[5] = FTIR test: acrylate conversion; settings: FIG. 2A
Procedure: A Fourier Transform Infrared (FTIR) with an Attenuated Total Reflection (ATR) setup was used. All polymerization rate measurements were performed using Nicolet iS50 FT-IR Spectrometer from Thermo Scientific, equipped with a standard DLaTGS detector. A lamp holder for the ART platform of FTIR unit can be customized and printed from Arkema N3xtDimention® engineered resin N3D-TOUGH784 in order to ensure precisely fit of a 405 nm lamp AccuCure ULM-2-405 from Digital Light Labs. On the bottom of this lamp holder, a dry air channel is built in to allow air uniformly blowing over sample surface, the gas flow rate can be controlled over a rotameter. The LED light was manually triggered by Ultraviolet illumination & Measurement System. […] Measurements of acrylate conversion were taken at the height under the reference peak around 1720 cm^−1; the acrylate peak at approximately 1407 cm^−1 was also measured. Peak height was determined using the baseline technique where a baseline is chosen to be the two lowest points between 600 cm^−1 and 1800 cm^−1. The height under the peak and above the baseline was then determined. […]
The ratio of the acrylate height to the reference peak height were determined for both the liquid and the cured samples. Degree of cure or conversion, expressed as percentage reacted acrylate, was calculated from the equation below: […]

[6] = Stability in inkjet formulations, LED curing 395 nm; assay type: physicochemical; settings: cyan ink, 6 μm film; FIG. 7B
Procedure: Resins and photoinitiators were mixed at the target weight ratio before gently stirring using magnetic stirrers at 30-40° C. for 3 hours. Solubility was checked by eye to confirm full dissolution. Curing results at target film weight, were checked by lightly scratching for surface curing and compressed thumb twist for depth curing. Average curing speed was calculated using the belt speed divided by the passing number recorded when full cured resin was achieved. For practical purposes, curing speed less than 0.3 m/min was categorised as “No cure”. Duplicate curing was performed for the same formulation, average curing speed was used for final comparisons. […] Comparison of the initial cure speed vs the cure speed of aged samples was directly compared. […] Film weights were 6 μm.

[7] = Stability in inkjet formulations, mercury curing; assay type: physicochemical; settings: cyan ink, same phosphine oxide w/w %, 6 μm film; FIG. 7A
Procedure: Resins and photoinitiators were mixed at the target weight ratio before gently stirring using magnetic stirrers at 30-40° C. for 3 hours. Solubility was checked by eye to confirm full dissolution. Curing results at target film weight, were checked by lightly scratching for surface curing and compressed thumb twist for depth curing. Average curing speed was calculated using the belt speed divided by the passing number recorded when full cured resin was achieved. For practical purposes, curing speed less than 0.3 m/min was categorised as “No cure”. Duplicate curing was performed for the same formulation, average curing speed was used for final comparisons.
Cure speed of samples was checked at T=0, then samples were aged in an oven at 60° C. for 2 weeks before reassessing cure speed. Comparison of the initial cure speed vs the cure speed of aged samples was directly compared. Lamp system: the mercury lamp was at an intensity of 50%, with belt speed 10 m/min The LED lamp was set at 395 nm, with a lamp intensity of 70%, at belt speed 20 m/min

[8] = 8% w/w photoinitiator in 7:3 w/w bisphenol A ethoxylate diacrylate/tripropylene glycol diacrylate, average of 3 runs
[9] = same active phosphine oxide concentration (given Wt %) in 7:3 w/w bisphenol A ethoxylate diacrylate/tripropylene glycol diacrylate
[10] = compositions containing 2 wt % photoinitiator
[11] = compositions containing 4 wt % photoinitiator

## CCCCNC(=O)C(CC(=O)c1c(C)cc(C)c(C(=O)P(=O)(c2ccccc2)c2ccccc2)c1C)N1CCOCC1 (single isomer, unassigned) [Photoinitiator 3]
[1]; [8]
  Cure speed (m/min) Depth cure: 3.9 m/min
  Cure speed (m/min) Surface cure: No cure (Where cure speed was less than 0.3 m/min, the result was recorded as ‘No cure’)
[1]; [9]
  Cure speed (m/min) Depth cure: 5.0 m/min
  Cure speed (m/min) Surface cure: 1.7 m/min

## CCCCNC(=O)C(CC(=O)c1c(C)cc(C)c(C(=O)P(=O)(c2ccccc2)c2ccccc2)c1C)N1CCN(C)CC1 (single isomer, unassigned) [Photoinitiator 4]
[1]; [8]
  Cure speed (m/min) Depth cure: 5.0 m/min
  Cure speed (m/min) Surface cure: No cure (Where cure speed was less than 0.3 m/min, the result was recorded as ‘No cure’)
[1]; [9]
  Cure speed (m/min) Depth cure: 5.0 m/min
  Cure speed (m/min) Surface cure: 1.6 m/min

## CCCCNC(=O)/C=C\C(=O)c1c(C)cc(C)c(C(=O)P(=O)(c2ccccc2)c2ccccc2)c1C [Precursor 3]
[1]; [8]
  Cure speed (m/min) Depth cure: 1.8 m/min
  Cure speed (m/min) Surface cure: No cure (Where cure speed was less than 0.3 m/min, the result was recorded as ‘No cure’)
[1]; [9]
  Cure speed (m/min) Depth cure: 1.8 m/min
  Cure speed (m/min) Surface cure: No cure (Where cure speed was less than 0.3 m/min, the result was recorded as ‘No cure’)

## Cc1cc(C)c(C(=O)P(=O)(c2ccccc2)c2ccccc2)c(C)c1 [SpeedCure TPO, 2,4,6-trimethylbenzoyl diphenyl phosphine oxide]
[2]
  cure speed in formulations at the same equivalent of phosphine oxide: Precursor 4<Photoinitiator 6<TPO
[3]; [10]
  time to peak max: 0.5 min
[3]; [11]
  time to peak max: 0.06 min
[4]
  stability: cure speed after accelerated ageing: larger reduction in cure speed than Photoinitiator 11
[1]; [8]
  Cure speed (m/min) Depth cure: 5.6 m/min
  Cure speed (m/min) Surface cure: 2.2 m/min
[1]; [9]
  Cure speed (m/min) Depth cure: 5.6 m/min
  Cure speed (m/min) Surface cure: 2.2 m/min
[5]
  cure speed in formulations at the same equivalent of phosphine oxide: Precursor 4<Photoinitiator 6<TPO

## Cc1cc(C)c(C(=O)P(=O)(C(=O)c2c(C)cc(C)cc2C)c2ccccc2)c(C)c1 [Speedcure BPO, bis-(2,4,6-trimethylbenzoyl)phenyl phosphine oxide]
[6]
  initial curing under 395 nm LED: best curing results
[7]
  initial curing performance under mercury lamp: closely followed

## CCOP(=O)(C(=O)c1c(C)cc(C)cc1C)c1ccccc1 (stereo not shown) [Speedcure TPO-L, Ethyl (2,4,6-trimethylbenzoyl)phenyl phosphinate]
[3]; [10]
  time to peak max: 0.06 min
[3]; [11]
  time to peak max: 0.06 min
